Assay results taken from PubChem BioAssay AID1963837 (Molecular Pharmacology Branch, DTP, NCI, 2024).

Tested on: 843126-344-R-J1-PDC complex spheroid viability
Experiment: Anticancer human tumor 843126-344-R-J1-PDC patient-derived melanoma cell line growth inhibition [POLQ]
Details: second compound 0.316 µM; first compound 1 µM; active compounds read low
Method in brief: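 Three-cell-type spheroids modelling solid tumor plus stroma served as the readout system; POL inhibitors were tested individually and in combination, concentration ranges set by clinical Cmax where known.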
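Further: spheroids exposed to drugs for seven days before readout.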

In order of rising viability, T/C:
1. CC1COCCN1c1cc(C2(O)CC3CCC(C2)O3)c2cnn(-c3ccn[nH]3)c2n1 (stereo unspecified) + Nc1ccc(C#CCN(C(=O)Cc2ncc(C(F)(F)F)cc2C(F)(F)F)c2ccc(F)cc2)nn1  36.5%
2. O=C(Nc1ccc(O)c(NS(=O)(=O)c2ccc(F)cc2)c1)c1ccc(-c2ccccc2)cc1 + Nc1ccc(C#CCN(C(=O)Cc2ncc(C(F)(F)F)cc2C(F)(F)F)c2ccc(F)cc2)nn1  84.3%
3. CCc1cc2c(N3CCc4c(cc(Cn5ccnc5)cc4-c4cn(C)nc4C(F)(F)F)C3=O)cc(C)nc2c(OC)n1 + Nc1ccc(C#CCN(C(=O)Cc2ncc(C(F)(F)F)cc2C(F)(F)F)c2ccc(F)cc2)nn1  84.6%
4. COc1cc2cc(C(=O)CCC(=O)O)sc2cc1OC + Nc1ccc(C#CCN(C(=O)Cc2ncc(C(F)(F)F)cc2C(F)(F)F)c2ccc(F)cc2)nn1  96.7%
5. C#Cc1c(F)ccc2cc(O)cc(-c3ncc4c(N5CC6CCC(C5)N6)nc(OCC56CCCN5CC(F)C6)nc4c3F)c12 (stereo unspecified) + Nc1ccc(C#CCN(C(=O)Cc2ncc(C(F)(F)F)cc2C(F)(F)F)c2ccc(F)cc2)nn1  110%

Same assay, conditions: second compound 0.316 µM; first compound 3.16 µM; active compounds read low

In order of rising viability, T/C:
1. CC1COCCN1c1cc(C2(O)CC3CCC(C2)O3)c2cnn(-c3ccn[nH]3)c2n1 (stereo unspecified) + Nc1ccc(C#CCN(C(=O)Cc2ncc(C(F)(F)F)cc2C(F)(F)F)c2ccc(F)cc2)nn1  28%
2. CCc1cc2c(N3CCc4c(cc(Cn5ccnc5)cc4-c4cn(C)nc4C(F)(F)F)C3=O)cc(C)nc2c(OC)n1 + Nc1ccc(C#CCN(C(=O)Cc2ncc(C(F)(F)F)cc2C(F)(F)F)c2ccc(F)cc2)nn1  76.8%
3. C#Cc1c(F)ccc2cc(O)cc(-c3ncc4c(N5CC6CCC(C5)N6)nc(OCC56CCCN5CC(F)C6)nc4c3F)c12 (stereo unspecified) + Nc1ccc(C#CCN(C(=O)Cc2ncc(C(F)(F)F)cc2C(F)(F)F)c2ccc(F)cc2)nn1  95.1%
4. O=C(Nc1ccc(O)c(NS(=O)(=O)c2ccc(F)cc2)c1)c1ccc(-c2ccccc2)cc1 + Nc1ccc(C#CCN(C(=O)Cc2ncc(C(F)(F)F)cc2C(F)(F)F)c2ccc(F)cc2)nn1  96.3%
5. COc1cc2cc(C(=O)CCC(=O)O)sc2cc1OC + Nc1ccc(C#CCN(C(=O)Cc2ncc(C(F)(F)F)cc2C(F)(F)F)c2ccc(F)cc2)nn1  108%

Same assay, conditions: second compound 0.316 µM; first compound 10 µM; active compounds read low

In order of falling viability, T/C:
1. C#Cc1c(F)ccc2cc(O)cc(-c3ncc4c(N5CC6CCC(C5)N6)nc(OCC56CCCN5CC(F)C6)nc4c3F)c12 (stereo unspecified) + Nc1ccc(C#CCN(C(=O)Cc2ncc(C(F)(F)F)cc2C(F)(F)F)c2ccc(F)cc2)nn1  90.8%
2. COc1cc2cc(C(=O)CCC(=O)O)sc2cc1OC + Nc1ccc(C#CCN(C(=O)Cc2ncc(C(F)(F)F)cc2C(F)(F)F)c2ccc(F)cc2)nn1  82.3%
3. CCc1cc2c(N3CCc4c(cc(Cn5ccnc5)cc4-c4cn(C)nc4C(F)(F)F)C3=O)cc(C)nc2c(OC)n1 + Nc1ccc(C#CCN(C(=O)Cc2ncc(C(F)(F)F)cc2C(F)(F)F)c2ccc(F)cc2)nn1  66.7%
4. O=C(Nc1ccc(O)c(NS(=O)(=O)c2ccc(F)cc2)c1)c1ccc(-c2ccccc2)cc1 + Nc1ccc(C#CCN(C(=O)Cc2ncc(C(F)(F)F)cc2C(F)(F)F)c2ccc(F)cc2)nn1  61.5%
5. CC1COCCN1c1cc(C2(O)CC3CCC(C2)O3)c2cnn(-c3ccn[nH]3)c2n1 (stereo unspecified) + Nc1ccc(C#CCN(C(=O)Cc2ncc(C(F)(F)F)cc2C(F)(F)F)c2ccc(F)cc2)nn1  17.9%

Same assay, conditions: second compound 1 µM; first compound 0.0316 µM; active compounds read low

In order of rising viability, T/C:
1. CC1COCCN1c1cc(C2(O)CC3CCC(C2)O3)c2cnn(-c3ccn[nH]3)c2n1 (stereo unspecified) + Nc1ccc(C#CCN(C(=O)Cc2ncc(C(F)(F)F)cc2C(F)(F)F)c2ccc(F)cc2)nn1  85.9%
2. COc1cc2cc(C(=O)CCC(=O)O)sc2cc1OC + Nc1ccc(C#CCN(C(=O)Cc2ncc(C(F)(F)F)cc2C(F)(F)F)c2ccc(F)cc2)nn1  96.7%
3. O=C(Nc1ccc(O)c(NS(=O)(=O)c2ccc(F)cc2)c1)c1ccc(-c2ccccc2)cc1 + Nc1ccc(C#CCN(C(=O)Cc2ncc(C(F)(F)F)cc2C(F)(F)F)c2ccc(F)cc2)nn1  98.3%
4. CCc1cc2c(N3CCc4c(cc(Cn5ccnc5)cc4-c4cn(C)nc4C(F)(F)F)C3=O)cc(C)nc2c(OC)n1 + Nc1ccc(C#CCN(C(=O)Cc2ncc(C(F)(F)F)cc2C(F)(F)F)c2ccc(F)cc2)nn1  104%
5. C#Cc1c(F)ccc2cc(O)cc(-c3ncc4c(N5CC6CCC(C5)N6)nc(OCC56CCCN5CC(F)C6)nc4c3F)c12 (stereo unspecified) + Nc1ccc(C#CCN(C(=O)Cc2ncc(C(F)(F)F)cc2C(F)(F)F)c2ccc(F)cc2)nn1  107%

Same assay, conditions: second compound 1 µM; first compound 0.1 µM; active compounds read low

In order of falling viability, T/C:
1. O=C(Nc1ccc(O)c(NS(=O)(=O)c2ccc(F)cc2)c1)c1ccc(-c2ccccc2)cc1 + Nc1ccc(C#CCN(C(=O)Cc2ncc(C(F)(F)F)cc2C(F)(F)F)c2ccc(F)cc2)nn1  97.1%
2. CCc1cc2c(N3CCc4c(cc(Cn5ccnc5)cc4-c4cn(C)nc4C(F)(F)F)C3=O)cc(C)nc2c(OC)n1 + Nc1ccc(C#CCN(C(=O)Cc2ncc(C(F)(F)F)cc2C(F)(F)F)c2ccc(F)cc2)nn1  94%
3. C#Cc1c(F)ccc2cc(O)cc(-c3ncc4c(N5CC6CCC(C5)N6)nc(OCC56CCCN5CC(F)C6)nc4c3F)c12 (stereo unspecified) + Nc1ccc(C#CCN(C(=O)Cc2ncc(C(F)(F)F)cc2C(F)(F)F)c2ccc(F)cc2)nn1  91.2%
4. COc1cc2cc(C(=O)CCC(=O)O)sc2cc1OC + Nc1ccc(C#CCN(C(=O)Cc2ncc(C(F)(F)F)cc2C(F)(F)F)c2ccc(F)cc2)nn1  77.7%
5. CC1COCCN1c1cc(C2(O)CC3CCC(C2)O3)c2cnn(-c3ccn[nH]3)c2n1 (stereo unspecified) + Nc1ccc(C#CCN(C(=O)Cc2ncc(C(F)(F)F)cc2C(F)(F)F)c2ccc(F)cc2)nn1  64.7%

Same assay, conditions: second compound 1 µM; first compound 0.316 µM; active compounds read low

With `C#Cc1c(F)ccc2cc(O)cc(-c3ncc4c(N5CC6CCC(C5)N6)nc(OCC56CCCN5CC(F)C6)nc4c3F)c12` (stereo unspecified) + Nc1ccc(C#CCN(C(=O)Cc2ncc(C(F)(F)F)cc2C(F)(F)F)c2ccc(F)cc2)nn1 the viability, T/C was 91.2%.
